Measured values taken from the SangsterLogP compilation.

Assay: method code SF, from DOI: 10.1016/0378-5173(89)90136-1

logP	SMILES
2.55	O=C(NCc1ccccc1O)c1ccccc1
1.78	COCCOC(=O)c1ccccc1
1.12	O=C(OCCO)c1ccccc1
2.31	CCCCCCNC(=S)NC
3.03	O=C(OC1C2C=CC1C=C2)c1ccccc1 (stereo not given)
1.05	CCNC(=O)[C@@H](NC(=O)CNC(=O)c1ccccc1)C(C)C
1.54	O=[N+]([O-])c1ccc(OCCN2CCOCC2)cc1
0.58	CCNC(=O)CNC(=O)c1ccccc1
1.09	O=C(OCCOCCOCCO)c1ccccc1

SMILES	logP
O=C(OCCNC(=O)C(F)(F)F)c1ccccc1	2.25
